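GI50 marks 50% less growth. The concentration for full growth arrest is given as TGI.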
Columns and labels:
Assay in all cases: NCI tumour cell line growth inhibition, 384-well format
786-0 renal = system: 786-0 renal
A498 renal = system: A498 renal
A549 NSCLC = system: A549 NSCLC
ACHN renal = system: ACHN renal
BT-549 breast = system: BT-549 breast
CAKI-1 renal = system: CAKI-1 renal
CCRF-CEM leukemia = system: CCRF-CEM leukemia
COLO 205 colon = system: COLO 205 colon
DU-145 prostate = system: DU-145 prostate
EKVX NSCLC = system: EKVX NSCLC
HCC-2998 colon = system: HCC-2998 colon
HCT-116 colon = system: HCT-116 colon
HCT-15 colon = system: HCT-15 colon
HL-60(TB) leukemia = system: HL-60(TB) leukemia
HOP-62 NSCLC = system: HOP-62 NSCLC
HOP-92 NSCLC = system: HOP-92 NSCLC
HS 578T breast = system: HS 578T breast
HT29 colon = system: HT29 colon
IGROV1 ovarian = system: IGROV1 ovarian
K-562 leukemia = system: K-562 leukemia
KM12 colon = system: KM12 colon
LOX IMVI melanoma = system: LOX IMVI melanoma
M14 melanoma = system: M14 melanoma
MALME-3M melanoma = system: MALME-3M melanoma
MCF7 breast = system: MCF7 breast
MDA-MB-435 melanoma = system: MDA-MB-435 melanoma
MDA-MB-468 breast = system: MDA-MB-468 breast
MOLT-4 leukemia = system: MOLT-4 leukemia
NCI-H226 lung = system: NCI-H226 lung
NCI-H23 lung = system: NCI-H23 lung
NCI-H322M lung = system: NCI-H322M lung
NCI-H460 NSCLC = system: NCI-H460 NSCLC
NCI-H522 lung = system: NCI-H522 lung
NCI/ADR-RES ovarian = system: NCI/ADR-RES ovarian
OVCAR-3 ovarian = system: OVCAR-3 ovarian
OVCAR-4 ovarian = system: OVCAR-4 ovarian
OVCAR-8 ovarian = system: OVCAR-8 ovarian
PC-3 prostate = system: PC-3 prostate
RPMI-8226 leukemia = system: RPMI-8226 leukemia
RXF 393 renal = system: RXF 393 renal
SF-268 CNS = system: SF-268 CNS
SF-295 CNS = system: SF-295 CNS
SF-539 CNS = system: SF-539 CNS
SK-MEL-2 melanoma = system: SK-MEL-2 melanoma
SK-MEL-28 melanoma = system: SK-MEL-28 melanoma
SK-MEL-5 melanoma = system: SK-MEL-5 melanoma
SK-OV-3 ovarian = system: SK-OV-3 ovarian
SN12C renal = system: SN12C renal
SNB-19 CNS = system: SNB-19 CNS
SNB-75 CNS = system: SNB-75 CNS
SW-620 colon = system: SW-620 colon
TK-10 renal = system: TK-10 renal
U251 glioblastoma = system: U251 glioblastoma
UACC-257 melanoma = system: UACC-257 melanoma
UACC-62 melanoma = system: UACC-62 melanoma

CN(C)c1ccc(N)c2ccccc12
GI50 ([…]-0 renal): 2.16 µM
TGI (786-0 renal): 9.6 µM
GI50 (A498 renal): 11.9 µM
TGI (A498 renal): 24.3 µM
GI50 (A549 NSCLC): 4.16 µM
TGI (A549 NSCLC): 16.6 µM
GI50 (ACHN renal): 12.1 µM
TGI (ACHN renal): 24.6 µM
GI50 (BT-549 breast): 1.5 µM
TGI (BT-549 breast): 2.84 µM
GI50 (CAKI-1 renal): 13.1 µM
TGI (CAKI-1 renal): 26 µM
GI50 (CCRF-CEM leukemia): 4.65 µM
TGI (CCRF-CEM leukemia): 19.1 µM
GI50 (COLO 205 colon): 2.09 µM
TGI (COLO 205 colon): 4.21 µM
GI50 (DU-145 prostate): 1.41 µM
TGI (DU-145 prostate): 2.73 µM
GI50 (EKVX NSCLC): 1.7 µM
TGI (EKVX NSCLC): 8.1 µM
GI50 (HCC-2998 colon): 2.4 µM
TGI (HCC-2998 colon): 16.2 µM
GI50 (HCT-116 colon): 2.2 µM
TGI (HCT-116 colon): 5.93 µM
GI50 (HCT-15 colon): 1.47 µM
TGI (HCT-15 colon): 3.54 µM
GI50 (HL-60(TB) leukemia): 0.814 µM
TGI (HL-60(TB) leukemia): 2.1 µM
GI50 (HOP-62 NSCLC): 1.59 µM
TGI (HOP-62 NSCLC): 2.98 µM
GI50 (HOP-92 NSCLC): 5.85 µM
TGI (HOP-92 NSCLC): 19.5 µM
GI50 (HS 578T breast): 2.44 µM
TGI (HS 578T breast): 6.72 µM
GI50 (HT29 colon): 4.55 µM
TGI (HT29 colon): 16.4 µM
GI50 (IGROV1 ovarian): 1.86 µM
TGI (IGROV1 ovarian): 16.1 µM
GI50 (K-562 leukemia): 18.4 µM
TGI (K-562 leukemia): 32.4 µM
GI50 (KM12 colon): 3.65 µM
TGI (KM12 colon): 14.8 µM
GI50 (LOX IMVI melanoma): 0.217 µM
TGI (LOX IMVI melanoma): 1.56 µM
GI50 (M14 melanoma): 1.5 µM
TGI (M14 melanoma): 2.84 µM
GI50 (MALME-3M melanoma): 0.448 µM
TGI (MALME-3M melanoma): 1.68 µM
GI50 (MCF7 breast): 1.34 µM
TGI (MCF7 breast): 2.64 µM
GI50 (MDA-MB-435 melanoma): 1.36 µM
TGI (MDA-MB-435 melanoma): 2.65 µM
GI50 (MDA-MB-468 breast): 0.591 µM
TGI (MDA-MB-468 breast): 4.61 µM
GI50 (MOLT-4 leukemia): 0.802 µM
TGI (MOLT-4 leukemia): 2.48 µM
GI50 (NCI-H226 lung): 1.28 µM
TGI (NCI-H226 lung): 7.63 µM
GI50 (NCI-H23 lung): 1.47 µM
TGI (NCI-H23 lung): 2.88 µM
GI50 (NCI-H322M lung): 2.1 µM
TGI (NCI-H322M lung): 3.86 µM
GI50 (NCI-H460 NSCLC): 2.93 µM
TGI (NCI-H460 NSCLC): 10.4 µM
GI50 (NCI-H522 lung): 2.77 µM
TGI (NCI-H522 lung): 11.6 µM
GI50 (NCI/ADR-RES ovarian): 11.8 µM
TGI (NCI/ADR-RES ovarian): 24.6 µM
GI50 (OVCAR-3 ovarian): 1.16 µM
TGI (OVCAR-3 ovarian): 2.52 µM
GI50 (OVCAR-4 ovarian): 0.397 µM
TGI (OVCAR-4 ovarian): 3.65 µM
GI50 (OVCAR-8 ovarian): 5.33 µM
TGI (OVCAR-8 ovarian): 17.5 µM
GI50 (PC-3 prostate): 1.34 µM
TGI (PC-3 prostate): 6.24 µM
GI50 (RPMI-8226 leukemia): 1.83 µM
TGI (RPMI-8226 leukemia): 5.98 µM
GI50 (RXF 393 renal): 2.68 µM
TGI (RXF 393 renal): 10.5 µM
GI50 (SF-268 CNS): 8.32 µM
TGI (SF-268 CNS): 20.5 µM
GI50 (SF-295 CNS): 7.17 µM
TGI (SF-295 CNS): 20.1 µM
GI50 (SF-539 CNS): 1.75 µM
TGI (SF-539 CNS): 3.3 µM
GI50 (SK-MEL-2 melanoma): 1.26 µM
TGI (SK-MEL-2 melanoma): 2.77 µM
GI50 (SK-MEL-28 melanoma): 1.76 µM
TGI (SK-MEL-28 melanoma): 3.71 µM
GI50 (SK-MEL-5 melanoma): 0.146 µM
TGI (SK-MEL-5 melanoma): 1.61 µM
GI50 (SK-OV-3 ovarian): 10.1 µM
TGI (SK-OV-3 ovarian): 21.8 µM
GI50 (SN12C renal): 1.76 µM
TGI (SN12C renal): 3.19 µM
GI50 (SNB-19 CNS): 3.4 µM
TGI (SNB-19 CNS): 11.7 µM
GI50 (SNB-75 CNS): 2.39 µM
TGI (SNB-75 CNS): 7.53 µM
GI50 (SW-620 colon): 1.64 µM
TGI (SW-620 colon): 3.11 µM
GI50 (TK-10 renal): 11.3 µM
TGI (TK-10 renal): 23.5 µM
GI50 (U251 glioblastoma): 7.75 µM
TGI (U251 glioblastoma): 20.4 µM
GI50 (UACC-257 melanoma): 1.04 µM
TGI (UACC-257 melanoma): 2.22 µM
GI50 (UACC-62 melanoma): 1.24 µM
TGI (UACC-62 melanoma): 2.5 µM
